Data taken from the NIST ThermoML archive (doi:10.1021/je060271a).

Conditions: 343.15 K, Liquid, Vibrating tube method

CCCCCC(=O)OCC(COC(=O)CCCCC)(COC(=O)CCCCC)COC(=O)CCCCC [pentaerythritol tetrahexanoate]
Conditions | mass density [kg/m3]
1134.6 kPa | 957.9
1280.5 kPa | 958.2
1295.1 kPa | 958.1
1307.6 kPa | 958.1
1320.1 kPa | 958.1
1332.9 kPa | 958.2
1348.2 kPa | 958.2
1414.9 kPa | 958.2
1428.2 kPa | 958.2
1444 kPa | 958.2
1457.4 kPa | 958.2
1470.4 kPa | 958.2
1483.5 kPa | 958.1
1513.7 kPa | 958.3
1557.9 kPa | 958.3
1571.7 kPa | 958.3
1588.7 kPa | 958.4
1603.1 kPa | 958.4
1617.5 kPa | 958.4
1697.7 kPa | 958.3
1713.1 kPa | 958.5
1728.4 kPa | 958.5
1747.5 kPa | 958.3
1763.5 kPa | 958.4
1779.3 kPa | 958.3
1795.9 kPa | 958.4
1815 kPa | 958.5
1831.3 kPa | 958.5
1848.3 kPa | 958.5
1865 kPa | 958.4
1884.9 kPa | 958.5
1902.5 kPa | 958.6
1920.5 kPa | 958.6
1937.8 kPa | 958.6
1958.6 kPa | 958.5
1976.1 kPa | 958.6
1993.6 kPa | 958.7
2012 kPa | 958.6
2033.4 kPa | 958.6
2051.6 kPa | 958.6
2070.2 kPa | 958.9
2092.2 kPa | 958.6
2363.6 kPa | 958.8
2384.2 kPa | 958.9
2409 kPa | 959
2429.7 kPa | 959
2451.3 kPa | 959
2477.2 kPa | 959.1
2710.1 kPa | 959.1
2733 kPa | 959.1
2756.2 kPa | 959.1
2778.8 kPa | 959.3
2805.7 kPa | 959.1
2828.2 kPa | 959.3
2850.2 kPa | 959.4
2877.4 kPa | 959.2
2900.2 kPa | 959.2
2971.9 kPa | 959.4
2994.1 kPa | 959.4
3021 kPa | 959.5
3043.4 kPa | 959.5
3066.1 kPa | 959.4
3093.1 kPa | 959.5
3115.3 kPa | 959.5
3138.2 kPa | 959.4
3165.6 kPa | 959.5
3188.6 kPa | 959.5
3212 kPa | 959.6
3235.3 kPa | 959.5
3263.5 kPa | 959.6
3286.6 kPa | 959.7
3314.6 kPa | 959.6
3338.4 kPa | 959.7
3362.1 kPa | 959.6
3386.4 kPa | 959.6
3410.3 kPa | 959.6
3439.1 kPa | 959.8
3463 kPa | 959.8
3486.9 kPa | 959.8
3514.8 kPa | 959.7
3538.6 kPa | 959.8
3563 kPa | 959.8
3592.3 kPa | 959.9
3616.2 kPa | 960
3640.6 kPa | 959.9
3665.4 kPa | 959.8
3695 kPa | 959.9
3719.3 kPa | 959.8
3743.2 kPa | 960
3768 kPa | 960
3796.7 kPa | 960
3821.2 kPa | 960
4008.1 kPa | 960.2
4035.6 kPa | 960.1
4062.6 kPa | 960.2
4089.1 kPa | 960.2
4120.6 kPa | 960.3
4147.6 kPa | 960.4
4174.5 kPa | 960.3
4201.5 kPa | 960.3
4234.2 kPa | 960.2
4261.2 kPa | 960.4
4288.4 kPa | 960.4
4316.6 kPa | 960.4
4350.4 kPa | 960.4
4378.3 kPa | 960.5
4414.7 kPa | 960.4
4437.5 kPa | 960.5
4465.6 kPa | 960.6
4499.5 kPa | 960.5
4528.1 kPa | 960.6
4557.2 kPa | 960.6
4592.3 kPa | 960.7
4621.6 kPa | 960.6
4656.7 kPa | 960.6
4686.5 kPa | 960.7
4715.9 kPa | 960.6
4751.9 kPa | 960.8
4781.7 kPa | 960.8
4812.3 kPa | 960.7
4843.3 kPa | 960.8
4880.7 kPa | 960.9
4911.1 kPa | 960.8
4942.3 kPa | 961
4973.8 kPa | 960.9
5010.3 kPa | 960.9
5041.6 kPa | 960.9
5073.3 kPa | 961
5110.1 kPa | 961
5141.5 kPa | 960.9
5173.8 kPa | 961
5212.2 kPa | 961.1
5245.4 kPa | 961.1
5277.4 kPa | 961.2
5309.8 kPa | 961.2
5348.9 kPa | 961.2
5381.6 kPa | 961.3
5415.2 kPa | 961.3
5454.8 kPa | 961.2
5488.1 kPa | 961.3
5521.5 kPa | 961.3
5555.1 kPa | 961.3
5594.9 kPa | 961.4
5627.9 kPa | 961.3
5662.1 kPa | 961.3
